The source of these data is patent US20260109721A1, “IONIZABLE CATIONIC LIPIDS INCORPORATING SILICON: SYNTHESIS AND LNP FORMULATION” (priority 2023, published 2026).

The test system of series [1] is HeLa cells. Description: Cell viability assessment with resazurin assay (Method A). Type of series: cell-based. The following applies: human. The procedure:
(§1) The synthesized lipids were tested in term of in vitro transfection efficacy and toxicity on HeLa cells. In order to perform the mentioned biological tests, appropriate LNPs had to be formulated from the synthesized lipids. The formulation technique was different in Method A and B. The particle size, polydispersity index (PDI) and zeta potential of resulting LNPs were determined by means of Dynamic Light Scattering technique (DLS). Prior to biological testing the encapsulation efficiency (EE) of the loaded LNPs was determined by using RiboGreen RNA assay. In case of Method A Luc mRNA while in case of Method B GFP mRNA was transfected into the cells. In parallel with the transfection experiments, toxicity of the investigated LNPs was determined, in case of Method A resazurin assay while in case of Method B MTT assay was used. Additionally, the toxicity of the lipids was investigated on HepG2 cells and IC50 values were determined.
This protocol is used to determine the metabolic activity of cells as a measure for cell viability after exposure to potentially toxic substances. Resazurin is converted in mitochondria by reduction to resorufin, which has a much higher fluorescence at ˜600 nm compared to unconverted resazurin. A lower amount/percentage of conversion is correlated with reduced cellular metabolism and indirectly to cellular death and toxicity. Care must be taken with interpretation of the read-out, as 50% reduction in resazurin conversion may mean 50% reduction of cellular metabolism of 100% alive cells, or 50% of cells dead, and any combination in between.
• 1. Prepare 0.25 mg/ml stock solution resazurin in fresh cell culture medium. Resazurin is auto-reducing over time in solution, especially in medium, and fresh stocks should be prepared every 2-3 days. Stocks should be stored at 4° C. and protected from light. For HeLa cells, DMEM/F12 with 10% FCS is used. • 2. Dilute stock solution 10× in fresh cell culture medium to 0.025 mg/ml->ready for application on cells. For HeLa cells, DMEM/F12 with 10% FCS is used. • 3. Collect 96-well plate and replace cell-culture spent medium with 100 μl per well resazurin solution. Add some resazurin solution for background measurement in wells not containing cells. • 4. Incubate for 50 minutes in incubator at 37° C., 5% CO2, 95% RH. • 5. Transfer resazurin solution to a fresh 96- or 384-well plate. • 6. Measure in plate reader using 540/25 nm (excitation) and 610/40 nm (emission) using standard settings (PTM low/OD-1.0). • 7. Subtract the average background measurement from all samples. Set the average of the negative controls (well receiving OptiMEM only during transfection) to 100% and express all values as percentage of the control activity. Typically, at lower levels of treatment, elevation of metabolic activity is shown, whereas for toxic substances, at toxic concentrations sigmoidal curves can be obtained, with lower activity indicating higher toxicity.

In series [2] the test system is HepG2 cell line. Description: In vitro toxicity study on HepG2 cell line (resazurin, viability and IC50). In kind it is cell-based, human. The following applies: resazurin; for Viability (%) at different lipid concentrations, mean: HepG2 cells, 48 h post-treatment, relative to ethanol vehicle controls; for IC50: Homo sapiens, lipid toxicity, HepG2, 48 h post-treatment, 6.25-800 μM, read-out: IC50 value, μM (on HepG2 cell). How it is done: as §1
HepG2 cell line (human hepatocellular carcinoma) were maintained in DMEM medium supplemented with 10% FBS. Cell toxicity measurements were carried out in 384-well microtiter plates with 1000 cells seeded in each well. Test measurements were carried out in triplicate, and control measurements in quadruplicate. After an overnight incubation, the cells were treated with an increasing concentration of the test compounds (6.25, 12.5, 25, 50, 100, 200, 400, 800 μM). […] 48 h post-treatment, following visual inspection under an inverted microscope, cell viability was measured by resazurin assay. Viability of treated cells was calculated relative to that of ethanol vehicle controls. Concentration response curves (CRCs) were obtained and corresponding IC50 values were calculated where applicable and are shown in Table 9.
Resazurin reagent (Sigma-Aldrich) was dissolved in PBS (pH 7.4) at 0.15 mg/ml concentration, 0.22 μm filtered and aliquoted at −20° C., 10 μl resazurin stock solution was added to wells. After 5 hours incubation at 37° C. under 5% CO2 fluorescence (530 nm excitation/580 nm emission) was recorded on a multimode microplate reader.
Background: Alamar Blue is a resazurin reagent that responds to reducing activity.

Molecules are shown by their SMILES.

A word on the IC50: it is the concentration needed to halve the response being measured. Turning to `CCCCC/C=C\C/C=C\CCCCCCCCOC(CCCCCCCCCCCCCCC)O[Si](C)(C)OCCCCCCN(CCO)CCO` (stereo not shown) [Example 43, (23Z,26Z)-3-(2-hydroxyethyl)-11,11-dimethyl-13-pentadecyl-10,12,14-trioxa-3-aza-11-siladotriaconta-23,26-dien-1-ol], the “Cell Viability % (Average metabolic rate over all doses, Resazurin)” value (from here on “Cell Viability %”) in series [1] was 98%. Besides, the “Viability (%) at different lipid concentrations, mean” value in series [2] (6.25 μM lipid) was found to be 100.9%; in series [2] (12.5 μM lipid), 98.7%; in series [2] (25 μM lipid), 102.2%; in series [2] (50 μM lipid) it was 111.9%; in series [2] (100 μM lipid), 114.9%; in series [2] (200 μM lipid), 108.9%. Further, the “Viability (%) at different lipid concentrations, mean” value was determined as 92.1% in series [2] (400 μM lipid) and 89.8% in series [2] (800 μM lipid). For the same molecule, the IC50 in series [2] was above 800 µM.
Regarding `CCCCC/C=C\C/C=C\CCCCCCCC(OCCCCCCCCCCCCCCCC)O[Si](C)(C)OCCCCCCN(CCO)CCO` (stereo not shown) [Example 44, 13-((8Z,11Z)-heptadeca-8,11-dien-1-yl)-3-(2-hydroxyethyl)-11,11-dimethyl-10,12,14-trioxa-3-aza-11-silatriacontan-1-ol], the “Cell Viability %” value in series [1] is on record as 94%. Moreover, the “Viability (%) at different lipid concentrations, mean” value is listed as 100.8% in series [2] (6.25 μM lipid); 98.5% in series [2] (12.5 μM lipid); 106.8% in series [2] (25 μM lipid); 112.7% in series [2] (50 μM lipid); 122.0% in series [2] (100 μM lipid); 118.8% in series [2] (200 μM lipid). Moreover, the entries for the “Viability (%) at different lipid concentrations, mean” value in series [2] (400 μM lipid) and in series [2] (800 μM lipid) were 103.0% and 94.0%, respectively. Besides, the IC50 in series [2] is above 800 µM.
Regarding `CCCCC/C=C\C/C=C\CCCCCCCC(OCCCCCCCC/C=C\CCCCCCCC)O[Si](C)(C)OCCCCCCN(CCO)CCO` (stereo not shown) [Example 45, (Z)-13-((8Z,11Z)-heptadeca-8,11-dien-1-yl)-3-(2-hydroxyethyl)-11,11-dimethyl-10,12,14-trioxa-3-aza-11-siladotriacont-23-en-1-ol], the “Cell Viability %” value in series [1] turned out to be 96%. Further, the “Viability (%) at different lipid concentrations, mean” value turned out to be 105.6% in series [2] (6.25 μM lipid); 99.4% in series [2] (12.5 μM lipid); 100.4% in series [2] (25 μM lipid); 106.0% in series [2] (50 μM lipid); 109.5% in series [2] (100 μM lipid); 107.1% in series [2] (200 μM lipid). The “Viability (%) at different lipid concentrations, mean” value in series [2] (400 μM lipid) is on record as 64.9%; in series [2] (800 μM lipid) it was 1.1%. The IC50 in series [2] was determined as 421 µM.
As to `CCCCC/C=C\C/C=C\CCCCCCCCOC(CCCCCCC/C=C\CCCCCCCC)O[Si](C)(C)OCCCCCCN(CCO)CCO` (stereo not shown) [Example 46, (23Z,26Z)-13-((Z)-heptadec-8-en-1-yl)-3-(2-hydroxyethyl)-11,11-dimethyl-10,12,14-trioxa-3-aza-11-siladotriaconta-23,26-dien-1-ol], the “Cell Viability %” value in series [1] is recorded as 95%. For the same molecule, the “Viability (%) at different lipid concentrations, mean” value amounted to 103.7% in series [2] (6.25 μM lipid); 100.6% in series [2] (12.5 μM lipid); 101.2% in series [2] (25 μM lipid); 97.4% in series [2] (50 μM lipid); 103.1% in series [2] (100 μM lipid); 101.8% in series [2] (200 μM lipid). The “Viability (%) at different lipid concentrations, mean” value in series [2] (400 μM lipid) was found to be 99.8%; in series [2] (800 μM lipid), 92.1%. In addition, in series [2], the IC50 is above 800 µM.
Take `CCCCCCCC/C=C\CCCCCCCCOC(CCCCCCC/C=C\CCCCCCCC)O[Si](C)(C)OCCCCCCN(CCO)CCO` (stereo not shown) [Example 47, (Z)-13-((Z)-heptadec-8-en-1-yl)-3-(2-hydroxyethyl)-11,11-dimethyl-10,12,14-trioxa-3-aza-11-siladotriacont-23-en-1-ol]: the “Cell Viability %” value in series [1] is 89%. For the same molecule, the “Viability (%) at different lipid concentrations, mean” value in series [2] (6.25 μM lipid) is 104.8%; in series [2] (12.5 μM lipid) it was 98.6%; in series [2] (25 μM lipid) it was 99.5%; in series [2] (50 μM lipid) it was 105.3%; in series [2] (100 μM lipid) it was 112.3%; in series [2] (200 μM lipid), 116.3%. Moreover, the figures for the “Viability (%) at different lipid concentrations, mean” value in series [2] (400 μM lipid) and in series [2] (800 μM lipid) were 97.9% and 93.6%, respectively. The IC50 in series [2] is above 800 µM.
For the molecule `CCCCC/C=C\C/C=C\CCCCCCCCOC(CCCCCCC/C=C\C/C=C\CCCCC)O[Si](C)(C)OCCCCCCN(CCO)CCO` (stereo not shown) [Example 48, (23Z,26Z)-13-((8Z,11Z)-heptadeca-8,11-dien-1-yl)-3-(2-hydroxyethyl)-11,11-dimethyl-10,12,14-trioxa-3-aza-11-siladotriaconta-23,26-dien-1-ol], the “Cell Viability %” value in series [1] amounted to 99%. The “Viability (%) at different lipid concentrations, mean” value came out at 97.4% in series [2] (6.25 μM lipid); 102.2% in series [2] (12.5 μM lipid); 95.7% in series [2] (25 μM lipid); 97.8% in series [2] (50 μM lipid); 99.6% in series [2] (100 μM lipid); 101.5% in series [2] (200 μM lipid). The figures for the “Viability (%) at different lipid concentrations, mean” value in series [2] (400 μM lipid) and in series [2] (800 μM lipid) were 98.4% and 68.3%, respectively. For the same molecule, in series [2], the IC50 is above 800 µM.
As to `CCCCCCCCCCCCCCCCOC(CCCCCCCCCCCCCCC)O[Si](C)(C)OCCCCCCN(CCO)CCO` (stereo not shown) [Example 49, 3-(2-hydroxyethyl)-11,11-dimethyl-13-pentadecyl-10,12,14-trioxa-3-aza-11-silatriacontan-1-ol], the “Cell Viability %” value in series [1] is recorded as 93%. Moreover, the “Viability (%) at different lipid concentrations, mean” value is reported as 101.6% in series [2] (6.25 μM lipid); 100.3% in series [2] (12.5 μM lipid); 100.4% in series [2] (25 μM lipid); 101.0% in series [2] (50 μM lipid); 106.4% in series [2] (100 μM lipid); 118.4% in series [2] (200 μM lipid). In addition, the “Viability (%) at different lipid concentrations, mean” value in series [2] (400 μM lipid) was determined as 112.6%; in series [2] (800 μM lipid), 103.0%. Besides, in series [2], the IC50 was above 800 µM.
